Test results taken from PubChem BioAssay (NCI).
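Step 1: Grow cells in 96-well plates. Step 2: Expose to compound for 48 hours at 5 concentrations. Step 3: Interpolate endpoints linearly; if unreached, use highest concentration. Abbreviation: GI50, concentration required for 50% inhibition of growth. TGI is the concentration that stops growth completely.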

Legend:
Assay in all cases: NCI tumour cell line growth inhibition, 48 h
MCF7 breast = test system: MCF7 breast
HCT-116 colon = test system: HCT-116 colon
HCC-2998 colon = test system: HCC-2998 colon
SF-539 CNS = test system: SF-539 CNS
NCI/ADR-RES ovarian = test system: NCI/ADR-RES ovarian
OVCAR-5 ovarian = test system: OVCAR-5 ovarian
SNB-75 CNS = test system: SNB-75 CNS
SF-295 CNS = test system: SF-295 CNS
NCI-H23 lung = test system: NCI-H23 lung
RXF 393 renal = test system: RXF 393 renal
RPMI-8226 leukemia = test system: RPMI-8226 leukemia
LOX IMVI melanoma = test system: LOX IMVI melanoma
786-0 renal = test system: 786-0 renal
SK-MEL-5 melanoma = test system: SK-MEL-5 melanoma
CAKI-1 renal = test system: CAKI-1 renal
IGROV1 ovarian = test system: IGROV1 ovarian
SW-620 colon = test system: SW-620 colon
MALME-3M melanoma = test system: MALME-3M melanoma
UO-31 renal = test system: UO-31 renal
U251 CNS = test system: U251 CNS
MDA-MB-231 breast = test system: MDA-MB-231 breast
NCI-H522 lung = test system: NCI-H522 lung
A498 renal = test system: A498 renal
HCT-15 colon = test system: HCT-15 colon
NCI-H226 lung = test system: NCI-H226 lung
SK-MEL-28 melanoma = test system: SK-MEL-28 melanoma
T-47D breast = test system: T-47D breast
SNB-19 CNS = test system: SNB-19 CNS
KM12 colon = test system: KM12 colon
HS 578T breast = test system: HS 578T breast
PC-3 prostate = test system: PC-3 prostate
SN12C renal = test system: SN12C renal
A549 NSCLC = test system: A549 NSCLC
OVCAR-3 ovarian = test system: OVCAR-3 ovarian
HOP-92 NSCLC = test system: HOP-92 NSCLC
HT29 colon = test system: HT29 colon
SR leukemia = test system: SR leukemia
OVCAR-4 ovarian = test system: OVCAR-4 ovarian
COLO 205 colon = test system: COLO 205 colon
SK-MEL-2 melanoma = test system: SK-MEL-2 melanoma
DU-145 prostate = test system: DU-145 prostate
HL-60(TB) leukemia = test system: HL-60(TB) leukemia
NCI-H460 lung = test system: NCI-H460 lung
HOP-62 NSCLC = test system: HOP-62 NSCLC
SK-OV-3 ovarian = test system: SK-OV-3 ovarian
BT-549 breast = test system: BT-549 breast
CCRF-CEM leukemia = test system: CCRF-CEM leukemia
SF-268 CNS = test system: SF-268 CNS
OVCAR-8 ovarian = test system: OVCAR-8 ovarian
TK-10 renal = test system: TK-10 renal
K-562 leukemia = test system: K-562 leukemia
EKVX NSCLC = test system: EKVX NSCLC
UACC-257 melanoma = test system: UACC-257 melanoma
MDA-MB-435 = test system: MDA-MB-435
UACC-62 melanoma = test system: UACC-62 melanoma
MOLT-4 leukemia = test system: MOLT-4 leukemia
M14 melanoma = test system: M14 melanoma
ACHN renal = test system: ACHN renal

NC(=O)/C(=C/n1cnc(-c2cc(C(F)(F)F)cc(C(F)(F)F)c2)n1)c1cncnc1
GI50 (MCF7 breast): 0.112 µM
TGI (MCF7 breast): 11.2 µM
GI50 (HCT-116 colon): 0.162 µM
TGI (HCT-116 colon): 4.95 µM
GI50 (HCC-2998 colon): 0.74 µM
TGI (HCC-2998 colon): 5.34 µM
GI50 (SF-539 CNS): 0.0806 µM
TGI (SF-539 CNS): 1.45 µM
GI50 (NCI/ADR-RES ovarian): 0.517 µM
TGI (NCI/ADR-RES ovarian): 23.9 µM
GI50 (OVCAR-5 ovarian): 0.447 µM
TGI (OVCAR-5 ovarian): 16.2 µM
GI50 (SNB-75 CNS): 0.454 µM
TGI (SNB-75 CNS): 5.48 µM
GI50 (SF-295 CNS): 0.667 µM
TGI (SF-295 CNS): 17.1 µM
GI50 (NCI-H23 lung): 0.307 µM
TGI (NCI-H23 lung): 9.18 µM
GI50 (RXF 393 renal): 0.0706 µM
TGI (RXF 393 renal): 0.573 µM
GI50 (RPMI-8226 leukemia): 0.102 µM
TGI (RPMI-8226 leukemia): 9.53 µM
GI50 (LOX IMVI melanoma): 0.303 µM
TGI (LOX IMVI melanoma): 4.36 µM
GI50 (786-0 renal): 0.412 µM
TGI (786-0 renal): 11.4 µM
GI50 (SK-MEL-5 melanoma): 1.13 µM
TGI (SK-MEL-5 melanoma): 10.2 µM
GI50 (CAKI-1 renal): 0.275 µM
TGI (CAKI-1 renal): 14.1 µM
GI50 (IGROV1 ovarian): 0.696 µM
TGI (IGROV1 ovarian): 14.7 µM
GI50 (SW-620 colon): 0.175 µM
TGI (SW-620 colon): 7.03 µM
GI50 (MALME-3M melanoma): 0.256 µM
TGI (MALME-3M melanoma): 9.03 µM
GI50 (UO-31 renal): 0.426 µM
TGI (UO-31 renal): 12.8 µM
GI50 (U251 CNS): 0.301 µM
TGI (U251 CNS): 12.3 µM
GI50 (MDA-MB-231 breast): 0.186 µM
TGI (MDA-MB-231 breast): 16.9 µM
GI50 (NCI-H522 lung): 0.331 µM
TGI (NCI-H522 lung): 4.33 µM
GI50 (A498 renal): 0.0848 µM
TGI (A498 renal): 1.26 µM
GI50 (HCT-15 colon): 0.286 µM
TGI (HCT-15 colon): 6.93 µM
GI50 (NCI-H226 lung): 0.286 µM
TGI (NCI-H226 lung): 7.73 µM
GI50 (SK-MEL-28 melanoma): 0.503 µM
TGI (SK-MEL-28 melanoma): 11.7 µM
GI50 (T-47D breast): 0.116 µM
TGI (T-47D breast): 11.8 µM
GI50 (SNB-19 CNS): 0.654 µM
TGI (SNB-19 CNS): 15 µM
GI50 (KM12 colon): 1.19 µM
TGI (KM12 colon): 13.4 µM
GI50 (HS 578T breast): 0.793 µM
TGI (HS 578T breast): 13.5 µM
GI50 (PC-3 prostate): 0.185 µM
TGI (PC-3 prostate): 14.8 µM
GI50 (SN12C renal): 0.814 µM
TGI (SN12C renal): 12.7 µM
GI50 (A549 NSCLC): 0.552 µM
TGI (A549 NSCLC): > 47.1 µM
GI50 (OVCAR-3 ovarian): 0.154 µM
TGI (OVCAR-3 ovarian): 3.32 µM
GI50 (HOP-92 NSCLC): 0.159 µM
TGI (HOP-92 NSCLC): 8.23 µM
GI50 (HT29 colon): 0.422 µM
TGI (HT29 colon): 16.3 µM
GI50 (SR leukemia): 0.0563 µM
TGI (SR leukemia): > 34.4 µM
GI50 (OVCAR-4 ovarian): 0.0833 µM
TGI (OVCAR-4 ovarian): 16.1 µM
GI50 (COLO 205 colon): 0.124 µM
TGI (COLO 205 colon): 11.5 µM
GI50 (SK-MEL-2 melanoma): 0.353 µM
TGI (SK-MEL-2 melanoma): 5.75 µM
GI50 (DU-145 prostate): 0.625 µM
TGI (DU-145 prostate): 12.2 µM
GI50 (HL-60(TB) leukemia): 0.0562 µM
TGI (HL-60(TB) leukemia): 2.96 µM
GI50 (NCI-H460 lung): 0.187 µM
TGI (NCI-H460 lung): 5.61 µM
GI50 (HOP-62 NSCLC): 1.06 µM
TGI (HOP-62 NSCLC): 17.2 µM
GI50 (SK-OV-3 ovarian): 1.57 µM
TGI (SK-OV-3 ovarian): 43.1 µM
GI50 (BT-549 breast): 0.12 µM
TGI (BT-549 breast): 2.98 µM
GI50 (CCRF-CEM leukemia): 0.231 µM
TGI (CCRF-CEM leukemia): 14.4 µM
GI50 (SF-268 CNS): 0.516 µM
TGI (SF-268 CNS): 11.9 µM
GI50 (OVCAR-8 ovarian): 0.329 µM
TGI (OVCAR-8 ovarian): 18.2 µM
GI50 (TK-10 renal): 0.986 µM
TGI (TK-10 renal): 13.5 µM
GI50 (K-562 leukemia): 0.144 µM
TGI (K-562 leukemia): 38.7 µM
GI50 (EKVX NSCLC): 0.566 µM
TGI (EKVX NSCLC): 20.8 µM
GI50 (UACC-257 melanoma): 0.86 µM
TGI (UACC-257 melanoma): 8.99 µM
GI50 (MDA-MB-435): 0.237 µM
TGI (MDA-MB-435): 3.89 µM
GI50 (UACC-62 melanoma): 0.63 µM
TGI (UACC-62 melanoma): 5.37 µM
GI50 (MOLT-4 leukemia): 0.0884 µM
TGI (MOLT-4 leukemia): 6.32 µM
GI50 (M14 melanoma): 0.715 µM
TGI (M14 melanoma): 7.86 µM
GI50 (ACHN renal): 0.386 µM
TGI (ACHN renal): 11.4 µM
